According to patent US4780281A, “Method for assay of peroxidase enzyme or reducing substrate activity” (Wayne State University, priority 1985, dated 1988):

Tests used:
cytochrome P-450 = experiment: PPHP as peroxidase substrate; type: biochemical
Excerpt: (§1) A practical method is described for the determination of peroxidase enzyme activity that monitors the ability of enzyme preparations to reduce PPHP in the presence of a reducing substrate. […] The alcohol product and hydroperoxide substrate are conveniently separated by HPLC and reliably quantitated by ultraviolet detection. These properties make PPHP an ideal substrate for the assay. […] Thus, the procedure is a general assay for peroxidase activity.

glutathione peroxidase = molecular target: T1, glutathione peroxidase (Homo sapiens, UniProt P07203); experiment: PPHP as peroxidase substrate; type: biochemical
T1 sequence (P07203 1-203): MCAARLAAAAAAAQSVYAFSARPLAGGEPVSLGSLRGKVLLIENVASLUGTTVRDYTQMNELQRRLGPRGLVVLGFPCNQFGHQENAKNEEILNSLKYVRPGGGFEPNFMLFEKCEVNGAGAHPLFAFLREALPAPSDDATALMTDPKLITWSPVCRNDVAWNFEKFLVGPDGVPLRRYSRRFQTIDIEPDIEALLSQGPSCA
Excerpt: as §1

catalase = molecular target: T2, catalase (Homo sapiens, UniProt P04040); experiment: PPHP as peroxidase substrate; type: biochemical
T2 sequence (P04040 2-527 limits assumed): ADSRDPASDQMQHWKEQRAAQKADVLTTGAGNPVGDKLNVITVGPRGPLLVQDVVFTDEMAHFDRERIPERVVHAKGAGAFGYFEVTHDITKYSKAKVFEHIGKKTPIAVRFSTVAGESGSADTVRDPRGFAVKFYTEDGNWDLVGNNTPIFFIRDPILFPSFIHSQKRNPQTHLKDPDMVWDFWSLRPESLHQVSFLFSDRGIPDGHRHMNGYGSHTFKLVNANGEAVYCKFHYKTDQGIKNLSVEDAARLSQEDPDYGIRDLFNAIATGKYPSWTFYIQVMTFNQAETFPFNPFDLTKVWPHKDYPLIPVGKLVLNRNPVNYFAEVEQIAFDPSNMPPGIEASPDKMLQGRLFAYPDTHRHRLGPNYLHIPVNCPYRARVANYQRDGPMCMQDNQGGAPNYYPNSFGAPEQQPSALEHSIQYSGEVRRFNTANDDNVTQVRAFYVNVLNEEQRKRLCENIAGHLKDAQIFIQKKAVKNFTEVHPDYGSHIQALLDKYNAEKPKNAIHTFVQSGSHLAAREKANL
Excerpt: as §1

lactoperoxidase = lactoperoxidase (Bos taurus, UniProt P80025); experiment: PPHP as peroxidase substrate; type: biochemical
Excerpt: as §1

[1] = molecular target: T3, Horseradish peroxidase (HRP) (Armoracia rusticana, UniProt P00433); experiment: Reducing substrate specificity assay (HRP-catalysed reduction of PPHP to PPA, HPLC); type: biochemical; conditions: for Index = concentration PPA/(concentration PPA+concentration PPHP): 100 microM PPHP, 0.1 M potassium citrate pH 5.5, 0.2 mM Tween-20, 25° C., 6 minutes, triplicate
T3 construct: purchased Sigma Chemical Corporation Type VI
T3 sequence (P00433 31-338 limits assumed): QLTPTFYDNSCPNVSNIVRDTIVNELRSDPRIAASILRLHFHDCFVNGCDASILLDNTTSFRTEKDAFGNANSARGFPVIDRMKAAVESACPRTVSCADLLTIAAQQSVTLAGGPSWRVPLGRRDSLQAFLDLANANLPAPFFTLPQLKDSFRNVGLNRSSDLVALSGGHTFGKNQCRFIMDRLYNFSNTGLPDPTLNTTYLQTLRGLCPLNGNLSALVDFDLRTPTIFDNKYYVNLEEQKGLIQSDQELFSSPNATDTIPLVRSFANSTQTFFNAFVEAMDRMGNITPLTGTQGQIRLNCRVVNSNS
Description: Incubations were performed in triplicate with a 25° C. shaker bath in 16×150 mm disposable glass test tubes. 60 nM HRP was incubated at 25° C. in 0.1 M potassium citrate buffer, […] containing 0.2 mM Tween 20, with 100 microM PPHP and 200 microM potential reducing substrate. The index value is defined as, Index=concentration PPA/(concentration PPA+concentration PPHP). Most reducing substrates were prepared daily as 8 mM stocks in either water, methanol, or methanol:water (1:1 v/v). DPBF was dissolved in acetone. Uric acid was dissolved in DMSO. Epinephrine required titration with dilute hydrochloric acid prior to dissolution in methanol. Indoleacetic acid, tryptophan, cysteine, and methionine were titrated with dilute potassium hydroxide prior to dissolution in methanol:water (1:1 v/v).
For the data in Table 1 hereinafter, reducing substrates (50 microliters of 8 mM stocks--see Table 1 for preparation) were transferred into 1.9 ml of 0.1 M potassium citrate buffer, pH 5.5, containing 0.2 mM Tween-20 and allowed to thermally equilibrate for 10 minutes. HRP (24 microl of a 5 microM stock) was added to each trial and preincubated for three minutes prior to the addition of PPHP (25 microl of 8 mM stock in methanol). Incubations were stopped at 6 minutes by pouring mixtures onto Baker SPE System columns (3 ml octyldecylsilyl, from J. T. Baker & Co.). The columns were prepared prior to use by passing 3×3 ml aliquots of water through the columns with the Baker SPE vacuum system. At the stop time, an individual trial was poured onto the column and aspirated to near dryness. Each individual trial was set aside until the reminder of the trials were treated in the same manner. After all incubation trials were partitioned onto the SPE columns, each individual incubation tube was washed with 2 ml of 0.2 mM Tween 20 in distilled water and poured onto the corresponding SPE column. This Tween 20/water wash was aspirated to near dryness with vacuum. Analytes were eluted into 12×76 mm disposable glass test tubes with 2×1 ml aliquots of methanol (HPLC grade, Fisher Scientific Co.). The sample collection rack for the Baker 10 SPE System was modified to accommodate these 12 mm diameter tubes. The SPE columns were aspirated dry at this point and discarded. An internal chromatographic standard of p-nitrobenzyl alcohol (25 microl of 8 mM stock solution in methanol) was added to each methanol eluent, mixed by vortexing, and then clarified by filtration through a 0.45 micron nylon Swinney type filter (Rainin Instrument Corp.). The filtered eluents were used directly for chromatographic analysis.
The Initial incubation conditions were 0.1 M potassium citrate buffer, pH 5.5, with 0.2 mM Tween 20, 200 microM reducing substrate, 60 nM HRP and […] PPHP (structure 1).
Quantitation was determined by adding an internal standard (p-nitrobenzyl alcohol: annotated as I.S. on chromatograms) and ratioing peak areas. Chromatograms are 40 microliters injections onto a 5 micron Zorbax octylsilyl reverse-phase column (DuPont Instrument Corp.) with an isocratic elution mobile of 56% v/v methanol in water at 2 ml per min. U.V. monitoring was with a fixed 254 nm detector (Varian 5000, Varian Instrument Corp.). Vertical numbers are associated with peak retention times in minutes (the integrator used was a Vista 402 System, Varian Instruments).
Analyte concentrations were calculated by an internal standard method of calculation. This required individual incubation chromatograms to be compared to a calibration chromatogram generated by chromatographing a 40 microliter sample aliquot of a solution of PPHP as described under calculations.

Stability of PPHP = type: physicochemical; conditions: protected from light and metals
Solubility of PPHP = type: physicochemical; conditions: aqueous buffers
Prostaglandin H Synthase = molecular target: T4, Prostaglandin H Synthase (Ovis aries, UniProt P05979); experiment: Reducing substrate efficiency for PPHP reduction, conditions as for Table 1; type: biochemical
T4 sequence (P05979 25-600): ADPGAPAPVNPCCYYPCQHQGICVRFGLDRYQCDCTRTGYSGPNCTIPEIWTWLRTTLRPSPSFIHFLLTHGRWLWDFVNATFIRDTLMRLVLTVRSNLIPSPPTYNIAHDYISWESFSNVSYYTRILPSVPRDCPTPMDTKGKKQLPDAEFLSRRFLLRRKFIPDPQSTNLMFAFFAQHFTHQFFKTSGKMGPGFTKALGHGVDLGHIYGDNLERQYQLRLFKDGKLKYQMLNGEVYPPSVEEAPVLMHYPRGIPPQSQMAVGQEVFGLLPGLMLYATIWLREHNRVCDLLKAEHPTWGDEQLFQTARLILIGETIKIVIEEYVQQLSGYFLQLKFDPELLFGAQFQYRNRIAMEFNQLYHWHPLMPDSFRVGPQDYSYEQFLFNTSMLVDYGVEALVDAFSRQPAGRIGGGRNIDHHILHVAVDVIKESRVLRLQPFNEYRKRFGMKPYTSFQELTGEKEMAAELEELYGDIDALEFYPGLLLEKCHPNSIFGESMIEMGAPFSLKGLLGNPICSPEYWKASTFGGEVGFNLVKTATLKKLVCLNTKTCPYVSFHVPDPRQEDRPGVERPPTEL

HRP = molecular target: T5, HRP (Armoracia rusticana, UniProt P00433); experiment: Steady-state kinetic assay (PPA production, SPE/HPLC); type: biochemical, horseradish; conditions: HRP with phenol as reducing substrate
T5 construct: purchased Sigma Chemical Corporation Type VI
T5 sequence (P00433 31-338 limits assumed): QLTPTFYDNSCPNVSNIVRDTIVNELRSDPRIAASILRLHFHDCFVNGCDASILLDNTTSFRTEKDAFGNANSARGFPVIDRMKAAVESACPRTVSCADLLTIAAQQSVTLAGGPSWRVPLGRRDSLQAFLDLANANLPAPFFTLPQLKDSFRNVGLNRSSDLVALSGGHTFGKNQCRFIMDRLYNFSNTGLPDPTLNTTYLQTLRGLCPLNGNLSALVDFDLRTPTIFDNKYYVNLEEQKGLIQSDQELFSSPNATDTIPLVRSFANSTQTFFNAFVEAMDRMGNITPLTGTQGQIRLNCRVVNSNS
Description: (§2) The incubations were terminated at 2, 4, and 8 minutes by pouring the incubations onto SPE columns as described in Methods. […] The data points are the average of triplicates. […] All buffers contained 0.2 mM Tween-20. Incubations were stopped at 4 minutes by pouring onto SPE columns as described in Methods. Each data point is the average of triplicates. […] Incubations were stopped at 4 minutes by pouring on SPE columns as described in Methods. PPA concentrations were converted into velocities by dividing by the incubation time and assuming linear steady-state velocities over the first 8 minutes (see FIG. 3). Five replicates of each phenol concentration were assayed. Km and Vmax were determined by linear regression analysis upon the non-averaged data points.
(§3) We designed the assays with 4 minute termination times converting either the concentration of PPHP or PPA into velocities.

HRP isoenzymes = conditions: similar preparation of HRP isoenzymes, phenylperoxyacetic acid; cited from earlier work
HRP compound II = molecular target: T6, HRP compound II (Armoracia rusticana, UniProt P00433); conditions: pH 8.11; read-out: Km for the reaction with HRP compound II; cited from earlier work
T6 sequence (P00433 31-353): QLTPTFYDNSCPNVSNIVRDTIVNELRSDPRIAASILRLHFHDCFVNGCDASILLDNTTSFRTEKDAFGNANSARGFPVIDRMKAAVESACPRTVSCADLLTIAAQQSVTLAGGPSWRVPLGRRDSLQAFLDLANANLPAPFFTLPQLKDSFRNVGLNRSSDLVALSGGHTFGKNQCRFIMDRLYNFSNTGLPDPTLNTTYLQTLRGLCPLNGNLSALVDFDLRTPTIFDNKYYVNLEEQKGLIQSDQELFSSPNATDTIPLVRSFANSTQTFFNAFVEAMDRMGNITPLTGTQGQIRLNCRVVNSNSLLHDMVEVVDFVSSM

[2] = substrate: OOCCC/C=C/c1ccccc1; experiment: Spectrophotometric assay of Chance & Maehly for guaiacol oxidation; type: biochemical, horseradish; conditions: other: estimated
Description: Apparent Km values for reducing substrates and enzymatic turnover numbers are readily determined by the steady-state kinetic assay.

[3] = substrate: Oc1ccccc1; experiment: Steady-state kinetic assay (PPA production, SPE/HPLC); type: biochemical, horseradish; conditions: other: 2.5 nM HRP, 100 microM PPHP, pH 5.5, 4 minutes
Description: as §2, §3

[4] = 60 nM HRP, 200 microM reducing substrate

OOCCC/C=C/c1ccccc1 [PPHP, 1-hydroperoxy-5-Phenyl-4-pentene]
suitability as peroxidase substrate (cytochrome P-450): excellent substrate
suitability as peroxidase substrate (glutathione peroxidase): excellent substrate
suitability as peroxidase substrate (catalase): excellent substrate
suitability as peroxidase substrate (lactoperoxidase): excellent substrate
suitability as peroxidase substrate ([1]; HRP): excellent substrate
stability (Stability of PPHP): stable if protected from light and metals
solubility (Solubility of PPHP): soluble in aqueous buffers
suitability as peroxidase substrate (Prostaglandin H Synthase; protaglandin H (PGH) synthase): excellent substrate

Oc1ccccc1 [Phenol, phenol]
turnover number of PHP reduction (HRP): 10500 min
Index = concentration PPA/(concentration PPA+concentration PPHP) [1, 4]: 0.97 ± 0.01
reducing substrate quality for HRP (FIG. 1) ([1]; 200 microM reducing substrate, 60 nM HRP, pH 5.5): good
Index of Efficiency of Reducing Substrates (Prostaglandin H Synthase; Prostaglandin H synthase, under the conditions for Table 1): .51

Oc1cccc(O)c1O [Pyrogallol, pyrogallol]
Index = concentration PPA/(concentration PPA+concentration PPHP) [1, 4]: 0.97 ± 0.01
turnover for pyrogallol oxidation (HRP isoenzymes): 18500 min⁻¹

Cc1ccc(O)cc1 [p-cresol]
Km (HRP compound II): ~180 µM

B1: HRP (Armoracia rusticana) (protein)
chain: QLTPTFYDNSCPNVSNIVRDTIVNELRSDPRIAASILRLHFHDCFVNGCDASILLDNTTSFRTEKDAFGNANSARGFPVIDRMKAAVESACPRTVSCADLLTIAAQQSVTLAGGPSWRVPLGRRDSLQAFLDLANANLPAPFFTLPQLKDSFRNVGLNRSSDLVALSGGHTFGKNQCRFIMDRLYNFSNTGLPDPTLNTTYLQTLRGLCPLNGNLSALVDFDLRTPTIFDNKYYVNLEEQKGLIQSDQELFSSPNATDTIPLVRSFANSTQTFFNAFVEAMDRMGNITPLTGTQGQIRLNCRVVNSNS
notes: purchased Sigma Chemical Corporation Type VI
Km [2]: 18 µM
Km [3]: 252 µM
